Data reported in patent publication US8067454B2, “Thio-substituted Anthra [1, 2-d] imidazole- 6, 11-dione derivatives, preparation method and application thereof” (National Defense Medical Center, priority 2010, dated 2011).

Columns and labels:
SK-OV-3 = test: NCI 60-cell drug screen, Ovarian Cancer SK-OV-3; format: cell-based, human; conditions: 1.00E−5 Molar
T-47D = test: NCI 60-cell drug screen, Breast Cancer T-47D; format: cell-based, human; conditions: 1.00E−5 Molar
U251 = test: NCI 60-cell drug screen, CNS Cancer U251; format: cell-based, human; conditions: 1.00E−5 Molar
HCC-2998 = test: NCI 60-cell drug screen, Colon Cancer HCC-2998; format: cell-based, human; conditions: 1.00E−5 Molar
[1] = system: 60 kinds of different human cancer cells; test: NCI 60-cell drug screen, whole panel (One Dose Mean Graph); format: cell-based; conditions: mean over the cell lines of the panel; 1.00E−5 Molar
SVG p12 = test: MTT assay, SVG p12 normal cell; conditions: concentration 10 μM, normal cell
DU-145 = test: NCI 60-cell drug screen, Prostate Cancer DU-145; format: cell-based, human; conditions: 1.00E−5 Molar
GBM8401 = test: MTT assay, GBM8401 tumor cell; conditions: for Cell survival rate (%) GBM8401: concentration 10 μM, tumor cell
SF-295 = test: NCI 60-cell drug screen, CNS Cancer SF-295; format: cell-based, human; conditions: 1.00E−5 Molar
MDA-MB-231/ATCC = test: NCI 60-cell drug screen, Breast Cancer MDA-MB-231/ATCC; format: cell-based, human; conditions: 1.00E−5 Molar
HCT-15 = test: NCI 60-cell drug screen, Colon Cancer HCT-15; format: cell-based, human; conditions: 1.00E−5 Molar
[2] = system: SVG p12, GBM8401 and GBM8901; test: MTT assay, normal cell versus tumor cells (categories 39-3 to 39-7); conditions: tumor cell survival rate less than 80%; FIG. 5C
MOLT-4 = test: NCI 60-cell drug screen, Leukemia MOLT-4; format: cell-based, human; conditions: 1.00E−5 Molar
UO-31 = test: NCI 60-cell drug screen, Renal Cancer UO-31; format: cell-based, human; conditions: 1.00E−5 Molar
SR = test: NCI 60-cell drug screen, Leukemia SR; format: cell-based, human; conditions: 1.00E−5 Molar
MCF7 = test: NCI 60-cell drug screen, Breast Cancer MCF7; format: cell-based, human; conditions: 1.00E−5 Molar
786-0 = test: NCI 60-cell drug screen, Renal Cancer 786-0; format: cell-based, human; conditions: 1.00E−5 Molar
MALME-3M = test: NCI 60-cell drug screen, Melanoma MALME-3M; format: cell-based, human; conditions: 1.00E−5 Molar
OVCAR-8 = test: NCI 60-cell drug screen, Ovarian Cancer OVCAR-8; format: cell-based, human; conditions: 1.00E−5 Molar
MDA-MB-468 = test: NCI 60-cell drug screen, Breast Cancer MDA-MB-468; format: cell-based, human; conditions: 1.00E−5 Molar
MDA-MB-435 = test: NCI 60-cell drug screen, Melanoma MDA-MB-435; format: cell-based, human; conditions: 1.00E−5 Molar
M14 = test: NCI 60-cell drug screen, Melanoma M14; format: cell-based, human; conditions: 1.00E−5 Molar
HS 578T = test: NCI 60-cell drug screen, Breast Cancer HS 578T; format: cell-based, human; conditions: 1.00E−5 Molar
HT29 = test: NCI 60-cell drug screen, Colon Cancer HT29; format: cell-based, human; conditions: 1.00E−5 Molar
OVCAR-3 = test: NCI 60-cell drug screen, Ovarian Cancer OVCAR-3; format: cell-based, human; conditions: 1.00E−5 Molar
CAKI-1 = test: NCI 60-cell drug screen, Renal Cancer CAKI-1; format: cell-based, human; conditions: 1.00E−5 Molar
[3] = system: telomerase (total cell lysates of lung cancer cell line H1299); test: Telomeric Repeat Amplification Protocol (TRAP) assay, screen of telomerase inhibitors; format: biochemical, human; conditions: 10 μM
Description: Telomeric Repeat Amplification Protocol (TRAP) Assay:
Telomerase activity was detected by a modified version of the general TRAP protocol. Telomerase products were resolved by 10% polyacrylamide gel electrophoresis and visualized by staining with SYBER Green. As a source of telomerase, the total cell lysates derived from lung cancer cell line H1299 cells were used. Protein concentration of the lysates was assayed using Bio-Rad protein assay kit using BSA standards.
In the TRAP assay, if a compound can stabilize the G-quadruplex structure such that telomerase can not act on telomere, then the effect of inhibiting the telomerase can be achieved. In the FIG. 2A to FIG. 2C, DMSO treatment represents as the positive control group (P); while a negative control group (N) used 5 μl of 0.1 mg/ml RNase A (CLONTECH) in the assay. It could be observed that a number of telomeric fragments were detected in the positive control group (P), while none was detected in the negative control group (N). 10 μM was selected as the concentration used to screen compounds.

| SMILES | Growth Percent, SK-OV-3 (SK-OV-3) [%] | Growth Percent, T-47D (T-47D) [%] | Growth Percent, U251 (U251) [%] | Growth Percent, HCC-2998 (HCC-2998) [%] | Growth Percent, Mean [1] [%] | Cell survival rate (%) SVG p12 (SVG p12) [%] | Growth Percent, DU-145 (DU-145) [%] | Cell survival rate (%) GBM8401 (GBM8401) [%] | Growth Percent, SF-295 (SF-295) [%] | Growth Percent, MDA-MB-231/ATCC (MDA-MB-231/ATCC) [%] | Growth Percent, HCT-15 (HCT-15) [%] | Growth Percent, MOLT-4 (MOLT-4) [%] | Growth Percent, UO-31 (UO-31) [%] | Growth Percent, SR (SR) [%] | Growth Percent, MCF7 (MCF7) [%] | Growth Percent, 786-0 (786-0) [%] | Growth Percent, MALME-3M (MALME-3M) [%] | Growth Percent, OVCAR-8 (OVCAR-8) [%] | Growth Percent, MDA-MB-435 (MDA-MB-435) [%] | Growth Percent, M14 (M14) [%] | other results |
| --- | --- | --- | --- | --- | --- | --- | --- | --- | --- | --- | --- | --- | --- | --- | --- | --- | --- | --- | --- | --- | --- |
| O=C1c2ccccc2C(=O)c2c1ccc1nc(SCCN3CCCC3)[nH]c21 [f1-11] | 55.57 | 83.06 | 69.07 | 71.50 | 52.08 | 98 ± 1 | 17.91 | 78 ± 10 | 76.91 | 63.52 | 40.36 | 30.94 | 21.22 | 20.25 | 30.88 | 77.12 | 112.31 | 49.38 | 66.47 | 70.87 | category 39-5: survival rate higher than 80% for normal cell SVG p12 and only inhibits growth of tumor cell GBM8901 [2]: in this category; Growth Percent, MDA-MB-468 (MDA-MB-468): 67.90% |
| CN(C)CCCSc1nc2ccc3c(c2[nH]1)C(=O)c1ccccc1C3=O [f1-15, 2-(3-(dimethylamino)propylthio)-1H-anthra[1,2-d]imidazole-6,11-dione] | 32.36 | 45.78 | 74.11 | 72.67 | 47.41 | 11 ± 6 | 36.35 | 8 ± 11 | 76.03 | 56.24 | 36.27 | −2.90 | 25.50 | 3.09 | 16.92 | 77.63 | 88.23 | 61.89 | 72.18 | 77.32 | Growth Percent, HS 578T (HS 578T): 69.32%; Growth Percent, HT29 (HT29): 17.84%; Growth Percent, OVCAR-3 (OVCAR-3): 59.33%; Growth Percent, CAKI-1 (CAKI-1): −14.89% |
| O=C1c2ccccc2C(=O)c2c1ccc1nc3n(c21)CCS3 [f3-1, 2-(2-N-ethylthio)-1H-anthra[1,2-d]imidazole-6,11-dione] | 87.43 | 73.06 | 72.48 | 94.76 | 75.99 | 62 ± 1 | 68.84 | 42 ± 16 | 78.56 | 94.00 | 57.15 | 58.39 | 45.79 | 60.62 | 64.78 | 92.44 | 87.59 | 75.40 | 83.11 | 78.50 | inhibitory effect against tumor cell GBM8401 (GBM8401; survival rate less than 80%): exhibited inhibitory effect against tumor cell GBM8401; inhibition effect against telomerase [3]: exhibited inhibition effect against telomerase; Growth Percent, MDA-MB-468 (MDA-MB-468): 69.68% |
